Laboratory results from patent US12559529B2, “NPY2 receptor agonists” (Boehringer Ingelheim International GmbH, priority 2019, dated 2026).
*1 amine or outer side, *2 acyl side, *3 side chain or, on linkers, in order; H or OH if unused. Where a SMILES comes first, the peptide text is derived from it. Side-chain parts run from the residue outwards. The star is where a group is joined. C18 diacid = O=C(O)CCCCCCCCCCCCCCCCC(=O)*; γGlu = O=C(O)[C@H](CCC(=O)[*:2])N[*:1]; Isovaleryl = CC(C)CC(=O)*; AEEA = NCCOCCOCC(=O)O

target: T1, Human Neuropeptide Y2 Receptor (Homo sapiens, UniProt P49146); assay: Radioligand binding competition assay (RLB); conditions: Table 3; human 125I-PYY (1-36) 0.02 nM, Y2 receptor membranes; read-out: Ki
T1 construct: purchased CHEMICON HTS066M
T1 sequence (P49146 1-381): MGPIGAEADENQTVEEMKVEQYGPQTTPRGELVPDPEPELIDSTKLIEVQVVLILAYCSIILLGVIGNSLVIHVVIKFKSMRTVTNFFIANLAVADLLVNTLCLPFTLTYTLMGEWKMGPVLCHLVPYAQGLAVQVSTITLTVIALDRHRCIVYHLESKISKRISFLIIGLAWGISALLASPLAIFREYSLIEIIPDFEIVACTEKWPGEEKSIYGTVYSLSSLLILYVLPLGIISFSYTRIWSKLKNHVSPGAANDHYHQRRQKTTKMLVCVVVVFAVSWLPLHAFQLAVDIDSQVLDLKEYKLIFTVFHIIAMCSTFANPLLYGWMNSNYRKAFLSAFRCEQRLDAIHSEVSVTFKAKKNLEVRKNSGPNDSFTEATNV
Description: The filtration RLB assay was carried out in 96-well plates in a final volume of 100 μl per well. Freeze-dried test peptides were dissolved in 100% dimethyl sulfoxide (DMSO) to stock solutions of 1 mM and serial dilutions were performed in assay buffer (50 mM HEPES, 5 mM MgCl2, 1 mM CaCl2), pH 7.4) containing 0.2% ovalbumin. […] Next, 80 μL membranes (HTS066M, ChemiSCREEN™ Human Neuropeptide Y2 Receptor Membrane Preparation, CHEMICON) were added to each well to give a final protein concentration of 0.5 μg/well. The plates were sealed and incubated at room temperature for 2 hours in a plate shaker set at 400 rpm. The incubation was stopped by vacuum filtration onto 0.5% poly-ethylene amine (PEI) presoaked GF/C filters using a 96-well FilterMate™ harvester (Perkin Elmer) followed by four washes with 300 μl/well ice-cold wash buffer (50 mM HEPES, 500 mM NaCl, pH7.4). Filter plates were then dried for 60 min at room temperature and the bottom of the plates was sealed with backing tape UniFilter-96. Finally, 50 μl/well scintillation counter cocktail (Microscint20, Packard) was added and the radioactivity was counted in the Packard TopCount NXT scintillation counter. IC50 values (the half maximal inhibitory concentration of the agonist) were calculated by nonlinear regression analysis of sigmoidal dose-response curves.

Row | Structure (SMILES) | Ki
1 | CC(C)CC(=O)N[C@@H](C)C(=O)N1CCC[C@H]1C(=O)N[C@@H](CCC(=O)O)C(=O)N[C@@H](CCCCNC(=O)COCCOCCNC(=O)COCCOCCNC(=O)CC[C@H](NC(=O)CCCCCCCCCCCCCCCCC(=O)O)C(=O)O)C(=O)N1CCC[C@H]1C(=O)N[C@@H](CCC(=O)O)C(=O)N[C@@H](CCC(=O)O)C(=O)N[C@@H](CCC(=O)O)C(=O)N[C@@H](C)C(=O)N[C@@H](CO)C(=O)N1CCC[C@H]1C(=O)N[C@@H](CCC(=O)O)C(=O)N[C@@H](CCC(=O)O)C(=O)N[C@@H](CC(C)C)C(=O)N[C@@H](CCC(N)=O)C(=O)N[C@@H](CCCNC(=N)N)C(=O)N[C@@H](Cc1ccc(O)cc1)C(=O)N[C@@H](Cc1ccc(O)cc1)C(=O)N[C@H](C(=O)N[C@@H](CO)C(=O)N[C@@H](C)C(=O)N[C@@H](CCCNC(=N)N)C(=O)N[C@@H](Cc1c[nH]cn1)C(=O)N[C@@H](Cc1ccc(O)cc1)C(=O)N[C@@H](Cc1ccc(O)cc1)C(=O)N[C@@H](CC(N)=O)C(=O)N[C@@H](Cc1c[nH]c2ccccc12)C(=O)N[C@@H](CC(C)C)C(=O)N[C@H](C(=O)N[C@@H](CCCNC(=N)N)C(=O)N[C@@H](CCC(N)=O)C(=O)N[C@@H](CCCNC(=N)N)C(=O)N[C@@H](Cc1ccc(O)cc1)C(N)=O)[C@@H](C)O)C(C)C [Compound 6, N{alpha-4}-(3-methylbutanoyl)-N{epsilon-7}-[2-(2-{2-[2-(2-{2-[(4S)-4-carboxy-4-(17-carboxyheptadecanamido)butanamido]ethoxy}ethoxy)acetamido]ethoxy}ethoxy)acetamido]-[4A,7K,9E,11E,18Q,22V,24A,28Y,30W,31L]hPYY (4-36)] (Isovaleryl-APEK([AEEA-AEEA-γGlu-C18 diacid])PEEEASPEELQRYYVSARHYYNWLTRQRY-NH2) | 6.52 nM
2 | CC(C)CC(=O)N[C@@H](C)C(=O)N1CCC[C@H]1C(=O)N[C@@H](CCC(=O)O)C(=O)N[C@@H](CCCCNC(=O)COCCOCCNC(=O)COCCOCCNC(=O)CC[C@H](NC(=O)CCCCCCCCCCCCCCCCC(=O)O)C(=O)O)C(=O)N1CCC[C@H]1C(=O)N[C@@H](CCC(=O)O)C(=O)N[C@@H](C)C(=O)N[C@@H](CC(=O)O)C(=O)N[C@@H](C)C(=O)N[C@@H](CO)C(=O)N1CCC[C@H]1C(=O)N[C@@H](CCC(=O)O)C(=O)N[C@@H](CCC(=O)O)C(=O)N[C@H](C(=O)N[C@@H](CCC(N)=O)C(=O)N[C@@H](CCCNC(=N)N)C(=O)N[C@@H](Cc1ccc(O)cc1)C(=O)N[C@@H](Cc1ccc(O)cc1)C(=O)N[C@H](C(=O)N[C@@H](CO)C(=O)N[C@@H](CC(C)C)C(=O)N[C@@H](CCCNC(=N)N)C(=O)N[C@@H](Cc1c[nH]cn1)C(=O)N[C@@H](Cc1ccc(O)cc1)C(=O)N[C@@H](Cc1ccc(O)cc1)C(=O)N[C@@H](CC(N)=O)C(=O)N[C@@H](Cc1c[nH]c2ccccc12)C(=O)N[C@@H](CC(C)C)C(=O)N[C@H](C(=O)N[C@@H](CCCNC(=N)N)C(=O)N[C@@H](CCC(N)=O)C(=O)N[C@@H](CCCNC(=N)N)C(=O)N[C@@H](Cc1ccc(O)cc1)C(N)=O)[C@@H](C)O)C(C)C)[C@@H](C)O [Compound 10, N{alpha-4}-(3-methylbutanoyl)-N{epsilon-7}-[2-(2-{2-[2-(2-{2-[(4S)-4-carboxy-4-(17-carboxyheptadecanamido)butanamido]ethoxy}ethoxy)acetamido]ethoxy}ethoxy)acetamido]-[4A,7K,9E,10A,17T,18Q,22V,28Y,30W,31L]hPYY (4-36)] | 1.28 nM
3 | CC(C)CC(=O)N[C@@H](C)C(=O)N1CCC[C@H]1C(=O)N[C@@H](CCC(=O)O)C(=O)N[C@@H](CCCCNC(=O)COCCOCCNC(=O)COCCOCCNC(=O)CC[C@H](NC(=O)CCCCCCCCCCCCCCCCC(=O)O)C(=O)O)C(=O)N1CCC[C@H]1C(=O)N[C@@H](CCC(=O)O)C(=O)N[C@@H](CCC(=O)O)C(=O)N[C@@H](CC(=O)O)C(=O)N[C@@H](C)C(=O)N[C@@H](C)C(=O)N1CCC[C@H]1C(=O)N[C@@H](CCC(=O)O)C(=O)N[C@@H](CCC(=O)O)C(=O)N[C@@H](CC(C)C)C(=O)N[C@@H](CCC(N)=O)C(=O)N[C@@H](CCC(N)=O)C(=O)N[C@@H](Cc1ccc(O)cc1)C(=O)N[C@@H](Cc1ccc(O)cc1)C(=O)N[C@H](C(=O)N[C@@H](CO)C(=O)N[C@@H](CC(C)C)C(=O)N[C@@H](CCCNC(=N)N)C(=O)N[C@@H](Cc1c[nH]cn1)C(=O)N[C@@H](Cc1ccc(O)cc1)C(=O)N[C@@H](Cc1ccc(O)cc1)C(=O)N[C@@H](CC(N)=O)C(=O)N[C@@H](Cc1c[nH]c2ccccc12)C(=O)N[C@@H](CC(C)C)C(=O)N[C@H](C(=O)N[C@@H](CCCNC(=N)N)C(=O)N[C@@H](CCC(N)=O)C(=O)N[C@@H](CCCNC(=N)N)C(=O)N[C@@H](Cc1ccc(O)cc1)C(N)=O)[C@@H](C)O)C(C)C [Compound 13, N{alpha-4}-(3-methylbutanoyl)-N{epsilon-7}-[2-(2-{2-[2-(2-{2-[(4S)-4-carboxy-4-(17-carboxyheptadecanamido)butanamido]ethoxy}ethoxy)acetamido]ethoxy}ethoxy)acetamido]-[4A,7K,9E,13A,18Q,19Q,22V,28Y,30W,31L]hPYY (4-36)] | 1.29 nM

Continued by falling Ki, values first:

Row | Ki | Structure (SMILES)
4 | 14.8 nM | CC(C)CC(=O)N[C@@H](C)C(=O)N1CCC[C@H]1C(=O)N[C@@H](CCC(=O)O)C(=O)N[C@@H](CCCCNC(=O)COCCOCCNC(=O)COCCOCCNC(=O)CC[C@H](NC(=O)CCCCCCCCCCCCCCCCC(=O)O)C(=O)O)C(=O)N1CCC[C@H]1C(=O)N[C@@H](CCC(=O)O)C(=O)N[C@@H](CCC(=O)O)C(=O)N[C@@H](CCC(=O)O)C(=O)N[C@H](C(=O)N[C@@H](CO)C(=O)N1CCC[C@H]1C(=O)N[C@@H](CCC(=O)O)C(=O)N[C@@H](CCC(=O)O)C(=O)N[C@@H](CC(C)C)C(=O)N[C@@H](CCC(N)=O)C(=O)N[C@@H](CCCNC(=N)N)C(=O)N[C@@H](Cc1ccc(O)cc1)C(=O)N[C@@H](Cc1ccc(O)cc1)C(=O)N[C@H](C(=O)N[C@@H](CO)C(=O)N[C@@H](CC(C)C)C(=O)N[C@@H](CCCNC(=N)N)C(=O)N[C@@H](Cc1c[nH]cn1)C(=O)N[C@@H](Cc1ccc(O)cc1)C(=O)N[C@@H](Cc1ccc(O)cc1)C(=O)N[C@@H](CC(N)=O)C(=O)N[C@@H](Cc1c[nH]c2ccccc12)C(=O)N[C@@H](CC(C)C)C(=O)N[C@H](C(=O)N[C@@H](CCCNC(=N)N)C(=O)N[C@@H](CCC(N)=O)C(=O)N[C@@H](CCCNC(=N)N)C(=O)N[C@@H](Cc1ccc(O)cc1)C(N)=O)[C@@H](C)O)C(C)C)C(C)C [Compound 5, N{alpha-4}-(3-methylbutanoyl)-N{epsilon-7}-[2-(2-{2-[2-(2-{2-[(4S)-4-carboxy-4-(17-carboxyheptadecanamido)butanamido]ethoxy}ethoxy)acetamido]ethoxy}ethoxy)acetamido]-[4A,7K,9E,11E,12V,18Q,22V,28Y,30W,31L]hPYY (4-36)] (Isovaleryl-APEK([AEEA-AEEA-γGlu-C18 diacid])PEEEVSPEELQRYYVSLRHYYNWLTRQRY-NH2)
5 | 2.89 nM | CC[C@H](C)[C@H](NC(=O)[C@H](CCC(=O)O)NC(=O)[C@H](CCC(=O)O)NC(=O)[C@@H]1CCCN1C(=O)[C@H](CO)NC(=O)[C@H](C)NC(=O)[C@H](CC(=O)O)NC(=O)[C@H](CCC(=O)O)NC(=O)[C@H](CCC(=O)O)NC(=O)[C@@H]1CCCN1C(=O)[C@H](CCCCNC(=O)COCCOCCNC(=O)COCCOCCNC(=O)CC[C@H](NC(=O)CCCCCCCCCCCCCCCCC(=O)O)C(=O)O)NC(=O)[C@H](CCC(=O)O)NC(=O)[C@@H]1CCCN1C(=O)[C@H](C)NC(=O)CC(C)C)C(=O)N[C@@H](CCC(N)=O)C(=O)N[C@@H](CCCNC(=N)N)C(=O)N[C@@H](Cc1ccc(O)cc1)C(=O)N[C@@H](CCC(=O)O)C(=O)N[C@H](C(=O)N[C@@H](CO)C(=O)N[C@@H](CC(C)C)C(=O)N[C@@H](CCCNC(=N)N)C(=O)N[C@@H](Cc1c[nH]cn1)C(=O)N[C@@H](Cc1ccc(O)cc1)C(=O)N[C@@H](Cc1ccc(O)cc1)C(=O)N[C@@H](CC(N)=O)C(=O)N[C@@H](Cc1c[nH]c2ccccc12)C(=O)N[C@@H](CC(C)C)C(=O)N[C@H](C(=O)N[C@@H](CCCNC(=N)N)C(=O)N[C@@H](CCC(N)=O)C(=O)N[C@@H](CCCNC(=N)N)C(=O)N[C@@H](Cc1ccc(O)cc1)C(N)=O)[C@@H](C)O)C(C)C [Compound 15, N{alpha-4}-(3-methylbutanoyl)-N{epsilon-7}-[2-(2-{2-[2-(2-{2-[(4S)-4-carboxy-4-(17-carboxyheptadecanamido)butanamido]ethoxy}ethoxy)acetamido]ethoxy}ethoxy)acetamido]-[4A,7K,9E,17I,18Q,21E,22V,28Y,30W,31L]hPYY (4-36)]
